Assay results from patent publication US11377466B2, “Analogs of the natural product icariin” (Whitehead Institute for Biomedical Research, priority 2018, dated 2022).
Like-named read-outs stand apart in the source and are kept apart here.

Experiments:
[1] = system: cavernous smooth muscle cells; details: cavernous smooth muscle cells isolated from icariin-treated mice; cited from earlier work
[2] = biological target: T1, purified recombinant human PDE5 (Homo sapiens, UniProt O76074); assay: In vitro PDE5 inhibition assay (GMP production from cGMP, LC-MS); assay type: biochemical; details: for IC50: cGMP at 1/10 of Km
T1 construct: purchased Abcam AB125581
Experimental: To evaluate the nine icariin analogs, the IC50 of each analog, icariin, and sildenafil were measured in an in vitro PDE5 inhibition assay, which measures GMP production from cGMP by purified recombinant human PDE5. Table 1 summarizes the IC50 values obtained for the nine icariin analogs tested. Fold improved potency in Table 1 refers to fold change in IC50 compared to icariin.
[…]. […] PDE5 (purified recombinant human PDE5 purchased from Abcam, Product No. AB125581) was added to start the reaction. The reaction was at room temperature until approximately 10-15% of cGMP in uninhibited control reactions was consumed. Keeping cGMP concentration low and staying within a linear reaction ensured that the reaction remained within Michaelis-Menten model assumptions and that the IC50 could be approximated to the inhibition constant or Ki (as substrate concentration decreases, IC50 value approaches Ki value). The reaction was stopped with the addition of 0.1 M hydrochloric acid. The amount of GMP produced was measured by LC-MS.

human PDE5 [3] = biological target: T2, human PDE5 (Homo sapiens, UniProt O76074); details: competitive inhibitor of human PDE5; previous work; cited from earlier work
T2 construct: host or cells: COS-7 cells (lysate), transfected with human PDE5

human PDE5 [4] = biological target: T2, human PDE5; details: reported by Dell'Agli et al.; COS-7 lysate expressing human PDE5; cited from earlier work
SKMEL-5 cells = assay: Cytotoxicity measured by resazurin, SKMEL-5; assay type: cell-based; details: Homo sapiens, SK-MEL-5, 0-10 μM
Experimental: (§1) A general feature of compounds with promise as viable therapeutics is a lack of toxicity to human cells. To test the icariin analogs for this feature, each analog was assayed against a panel of five human cell lines for cytotoxicity. The five human cell lines represent various tissue types—normalized, untransformed epithelial cells derived from fetal foreskin, neuroblastoma, melanoma, prostate, and lung. A Western blot against PDE5 confirmed that all five cell lines express PDE5 protein (data not shown). Compounds 2-7 were assayed at concentrations ranging from 0-10 μM, ensuring that all compounds remained soluble. […]

H187 cells = assay: Cytotoxicity measured by resazurin, H187; assay type: cell-based; details: Homo sapiens, NCI-H187, 0-10 μM
Experimental: as §1

[5] = system: panel of five human cell lines; assay: Cytotoxicity against a panel of five human cell lines (resazurin); assay type: cell-based; details: 2 and 4: two out of five cell lines, 6: three out of five cell lines, 0-10 μM, read-out: IC50 of toxicity in the affected cell lines
Experimental: as §1

BJHTERT+ cells = assay: Cytotoxicity measured by resazurin, BJHTERT+ (BjH+); assay type: cell-based; details: Homo sapiens, 0-10 μM
Experimental: as §1

[6] = purified recombinant human PDE5

Question: What does the source list for `COc1ccc(-c2oc3c(CC=C(C)C)c(O[C@@H]4O[C@H](CO)[C@@H](O)[C@H](O)[C@H]4O)cc(O)c3c(=O)c2O[C@@H]2O[C@@H](C)[C@H](O)[C@@H](O)[C@H]2O)cc1` [icariin]?
Answer: cGMP levels [1]: increase cGMP levels; Field improved potency ([2]; fold change in IC50 compared to icariin): 1; IC50 [2, 6]: 6000 ± 1000 nM; IC50 (human PDE5 [3]): 1 to 6 µM

Question: With `COc1ccc(-c2oc3c(CC=C(C)C)c(O[C@@H]4O[C@H](CO)[C@@H](O)[C@H](O)[C@H]4O)cc(O)c3c(=O)c2OCC(C)O)cc1` (stereo partly shown) [Compound 5] as the molecule, how does the IC50 [2, 6] read?
Answer: 500 ± 100 nM

Question: Which results are given for `COc1ccc(-c2oc3c(CC=C(C)C)c(O[C@@H]4O[C@H](CO)[C@@H](O)[C@H](O)[C@H]4O)cc(O)c3c(=O)c2OCCO)cc1` [Compound 3]?
Answer: Ki ([2]; enzyme kinetics, purified recombinant human PDE5): 36 ± 5 nM; IC50 [2, 6]: 83 ± 10 nM

Question: For `COc1ccc(-c2oc3c(CC=C(C)C)c(O)cc(O)c3c(=O)c2O)cc1` [Compound 9, icaritin], which IC50 [2, 6] is on record?
Answer: 1800 ± 800 nM

Question: For `COc1ccc(-c2oc3c(CC=C(C)C)c(O)cc(O)c3c(=O)c2O[C@@H]2O[C@H](C)[C@@H](O)[C@H](O)[C@@H]2O)cc1` [Compound 1, icariside II], which IC50 (human PDE5 [4]) is on record?
Answer: 160 nM

Question: For `COc1ccc(-c2oc3c(CC=C(C)C)c(O)cc(O)c3c(=O)c2OCCO)cc1` [Compound 6], which IC50 (SKMEL-5 cells) is on record?
Answer: 4.45 µM

Question: What about the IC50 (H187 cells) of the same molecule?
Answer: 5.92 µM

Question: What about the IC50 [5] of the same molecule?
Answer: 4 to 7 µM

Question: What about the IC50 (BJHTERT+ cells) of the same molecule?
Answer: 6.73 µM
